The source of these data is PubChem BioAssay (NCI).

Assay in all cases: growth of human tumour cells (NCI), 48 h
For assay [1], the system named is COLO 205 colon.
Assay [2] has as its system HCT-15 colon.
For assay [3], the system named is LOX IMVI melanoma.
Assay [4] has as its system MDA-MB-231 breast.
The subject of assay [5] is MOLT-4 leukemia.
For assay [6], the system named is SF-268 CNS.
Assay [7] has as its system UACC-257 melanoma.
Assay [8] has as its system M14 melanoma.
In assay [9] the test system is SF-295 CNS.
In assay [10] the test system is SK-MEL-5 melanoma.

Each structure is given as a SMILES string.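 Briefly, cells in 96-well plates were exposed to five compound concentrations for 48 h, and endpoints were estimated by linear interpolation. Abbreviation: GI50, concentration required for 50% inhibition of growth. TGI denotes the concentration required for complete inhibition of growth.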 Bounds are passed on as bounds.

On to `Cc1cnc2[nH]c(-c3cccc(F)c3)cc(=O)c2c1`, for which the TGI in assay [1] is 0.0582 µM; in [2], 2.59 µM; in [3], above 100 µM; in assay [4], 0.614 µM; in assay [5] it was above 100 µM; in assay [6] it was above 100 µM. The TGI in [7] is above 100 µM.

Take `CC(C)=CCC12Cc3ccc(O)cc3C(C(C)CN1)C2C` (stereo not drawn): the TGI in [1] was above 100 µM; in assay [2], above 100 µM; in assay [3], above 100 µM; in assay [8], 51.5 µM; in assay [4], above 100 µM; in [5], above 100 µM. Moreover, the TGI in assay [6], in [9] and in [7] was above 100 µM each time.

`CN(C)CCNc1c([N+](=O)[O-])sc2ccc(Cl)cc12`: the TGI is above 100 µM in assay [1]; above 100 µM in assay [2]; above 100 µM in assay [3]; above 100 µM in assay [8]; above 100 µM in [4]; 7.73 µM in assay [5]. The TGI in assay [6], in assay [9] and in [10] was above 100 µM throughout.

For `O=C1N/N=C\c2ccc(cc2)OCc2cccc(n2)COc2ccc(cc2)/C=N\NC1=O`, the TGI in assay [1], in [2], in assay [8], in [4], in [5] and in assay [6] was above 25 µM in each case. In addition, the TGI in assay [9] and in [7] was above 25 µM each time.

On to `CC(=O)N(C)c1ccc(Nc2ccnc3ccc4nn(C)nc4c23)cc1`, for which the TGI in [1] is 45.2 µM; in assay [2] it was 64.5 µM; in assay [3], 30.6 µM; in assay [8], above 100 µM; in assay [5], 58 µM; in assay [6] it was above 100 µM. In addition, the TGI in assay [9] amounted to 59 µM; in assay [10], 37.6 µM; in assay [7], 58.3 µM.

Turning to `c1c(N2CCOCC2)ssc1=[N+]1CCOCC1`, the TGI in assay [2], in assay [3], in [8], in assay [5], in assay [6] and in assay [9] was above 100 µM in each case. For the same molecule, the TGI in assay [10] and in assay [7] was above 100 µM throughout.

`O=C1CC(c2ccccc2Cl)C2(C(=O)NC(=O)NC2=O)C(c2ccccc2Cl)C1` (stereo not drawn): the TGI in assay [2], in [3], in assay [8], in assay [4], in assay [5] and in [6] was above 100 µM throughout. For the same molecule, the TGI in assay [9], in assay [10] and in assay [7] was above 100 µM throughout.

Turning to `Cc1ccc2c(c1C)CC1(Cc3c(C)ccc(C)c3C1=O)C2=O` (stereo not drawn), the TGI in assay [1], in [2], in assay [8], in assay [4], in [5] and in [6] was above 100 µM each time. The TGI in assay [9], in assay [10] and in assay [7] was above 100 µM each time.

With `CC1CCc2sc3nc4n(c(=O)c3c2C1)CC(C)S4` (stereo not drawn), the TGI is 39.3 µM in [1]; above 100 µM in assay [2]; 39.8 µM in [3]; 51.8 µM in [8]; 52.3 µM in assay [4]; above 100 µM in assay [6]. The TGI in [9] is 52.6 µM; in assay [10] it was 34.4 µM; in assay [7], 50.9 µM.

Regarding `COC(=O)C1=C(C(=O)OC)SC(=C2SC3=C(SC(=C4SCCS4)S3)S2)S1`, the TGI in [1], in assay [3], in assay [8], in assay [4], in assay [5] and in [6] was above 100 µM each time. For the same molecule, the TGI in assay [9], in [10] and in assay [7] was above 100 µM each time.

Turning to `O=C1NC(=S)NC(=O)C1C(c1ccc(Cl)cc1)C1C(=O)NC(=S)NC1=O`, the TGI in [1], in assay [2], in assay [3], in assay [8], in assay [4] and in [5] was above 100 µM throughout. For the same molecule, the TGI in [9], in assay [10] and in assay [7] was above 100 µM throughout.

For `CCN1CCN(Cc2ccc(NC(=O)Nc3ccc(-n4ccc5c(NC(=O)c6ccccc6)nccc54)cc3)cc2C(F)(F)F)CC1`, the GI50 in assay [1] was 0.942 µM; in assay [2] it was 0.227 µM; in [8] it was 1.12 µM; in assay [10] it was 0.764 µM. Also, the TGI is 2.51 µM in assay [1], 1.81 µM in [2], 2.39 µM in [8] and 2.02 µM in assay [10].

Consider `Clc1ccc(OCc2nnc(COc3ccc(OCc4nnc(COc5ccc(Cl)cc5Cl)o4)c(Cl)c3)o2)c(Cl)c1`, for which the TGI in assay [1] is 74.9 µM; in [2], above 100 µM; in [3], 33.4 µM; in [8], above 100 µM; in [4], 63.1 µM; in assay [6], 64.3 µM. Further, the TGI in [9], in [10] and in assay [7] was above 100 µM each time.

`CC(=O)OC1CC2(O)C(CCC3(C)C(c4ccc(=O)oc4)CCC32O)C2(C)C1=CC(O)C1OC12` (stereo not drawn): the TGI was 0.354 µM in assay [1]; 0.32 µM in assay [2]; 1.02 µM in assay [3]; 0.0366 µM in assay [5]; 0.0874 µM in assay [6]; 0.261 µM in assay [9]. Moreover, the TGI was determined as 0.0435 µM in assay [10] and 0.333 µM in assay [7].

In the case of `CCCO/N=[N+](\[O-])N(CC)CC`, the TGI in assay [2], in assay [3], in assay [8], in assay [5], in [6] and in assay [9] was above 100 µM in each case. Besides, the TGI in [10] and in assay [7] was above 100 µM in each case.
